Experimental data from ChEMBL document CHEMBL1201862, “PubChem BioAssay data set” (2004).
Where a name gives a salt, the structure may show the parent alone. The source made the active and inactive calls.

Legend:
[1] = growth inhibition of yeast DHODH-expressing 3D7 parasites – SYBR Green, dry powder samples, dose response (AID 1159570); assay type: functional, cell-based;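 also: parasite growth measured after 72 hours of compound exposure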
[2] = toxicity to human HepG2 hepatoma cells – cell-based, plate reader, dry powder samples, cytotoxicity control, dose response (AID 1159569); assay type: functional;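 also: inhibitor potency with signal falling toward the positive control level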
[3] = growth inhibition of PfATP4-mutant resistant parasites – NITD609-resistant line, SYBR Green, dry powder, dose response (AID 1159571); assay type: functional, cell-based;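 also: parasites synchronized at ring stage by sorbitol before testing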
[4] = toxicity to human hepatoma HepG2 cells – cell-based, cherry-picked samples, cytotoxicity control, dose response (AID 1159577); assay type: functional
[5] = OVCAR-3 cell viability loss – plate reader, dry powder samples, PAX8 inhibitor project, dose response (AID 743044); assay type: functional, cell-based
[6] = Dd2 malaria parasite growth inhibition potency – SYBR Green, dry powder samples, dose response (AID 1159566); assay type: functional, cell-based;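 also: potency for growth inhibition with lower SYBR green DNA signal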
[7] = biological target: Paired box protein Pax-8 (Homo sapiens, UniProt Q06710); assay: PAX8 transcriptional activity inhibition in RMG-I – RMG-I cells, luciferase, cherry-pick, dose response (AID 687027); assay type: functional, cell-based;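 also: luciferase reporter driven by Pax8 target thyroperoxidase promoter measured by SteadyGlo luminescence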
Sequence of Paired box protein Pax-8 (Q06710 whole entry): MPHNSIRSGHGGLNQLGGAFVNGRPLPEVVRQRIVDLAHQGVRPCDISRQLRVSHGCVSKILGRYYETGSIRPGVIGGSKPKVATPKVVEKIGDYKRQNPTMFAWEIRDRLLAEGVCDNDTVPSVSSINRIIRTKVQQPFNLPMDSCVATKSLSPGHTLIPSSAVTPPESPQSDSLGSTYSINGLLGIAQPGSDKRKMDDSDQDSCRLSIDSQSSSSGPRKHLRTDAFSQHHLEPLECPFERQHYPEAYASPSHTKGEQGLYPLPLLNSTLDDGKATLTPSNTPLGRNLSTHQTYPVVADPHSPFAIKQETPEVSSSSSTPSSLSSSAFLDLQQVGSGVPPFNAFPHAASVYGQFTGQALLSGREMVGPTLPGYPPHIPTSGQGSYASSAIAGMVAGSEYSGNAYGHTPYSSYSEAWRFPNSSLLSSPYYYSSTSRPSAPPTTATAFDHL

[8] = P. falciparum Dd2 growth inhibitors, dose response, SYBR Green, cherry-picked samples (AID 1159567); assay type: functional, cell-based
[9] = OVCAR8 cell viability loss – plate reader, dry powder samples, PAX8 project, dose response (AID 743197); assay type: functional, cell-based; details: OVCAR-8
[10] = biological target: Mitogen-activated protein kinase 10 (Homo sapiens, UniProt P53779); assay: Dose response biochemical screening assay for inhibitors of c-Jun N-Terminal Kinase 3 (JNK3). [Related pubchem assays: 746 ]
Sequence of Mitogen-activated protein kinase 10 (P53779 whole entry): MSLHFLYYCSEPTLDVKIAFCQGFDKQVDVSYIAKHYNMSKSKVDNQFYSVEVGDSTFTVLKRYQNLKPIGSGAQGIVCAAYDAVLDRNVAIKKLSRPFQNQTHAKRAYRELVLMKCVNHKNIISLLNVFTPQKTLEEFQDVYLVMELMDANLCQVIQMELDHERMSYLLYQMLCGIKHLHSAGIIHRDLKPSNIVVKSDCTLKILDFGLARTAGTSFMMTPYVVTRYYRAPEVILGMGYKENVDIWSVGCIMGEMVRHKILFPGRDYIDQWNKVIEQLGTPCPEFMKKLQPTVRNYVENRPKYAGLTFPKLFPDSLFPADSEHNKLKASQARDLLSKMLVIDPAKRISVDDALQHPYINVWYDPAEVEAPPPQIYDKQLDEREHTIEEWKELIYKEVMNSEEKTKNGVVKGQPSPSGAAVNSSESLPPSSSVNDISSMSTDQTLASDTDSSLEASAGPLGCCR

[11] = HCT116 cell viability decrease, GSK3B pretreatment – CellTiter-Glo, IC50, dose response (AID 1117339); assay type: functional; details: HCT-116
[12] = SNU-C1 cell viability reduction, dose response, CellTiter-Glo luminescence (AID 1117323); assay type: functional, cell-based
[13] = RKO cell viability reduction, dose response, CellTiter-Glo luminescence (AID 1117322); assay type: functional
[14] = cytotoxicity toward HT-29 cells – cell-based, CellTiter-Glo luminescence, IC50, dose response (AID 1117330); assay type: functional
[15] = CellTiter-Glo luminescence survival assay, SW480 colon tumor line, concentration-response curve, half-maximal inhibitory concentration (AID 1117338); assay type: functional
[16] = Reduced DLD-1 viability, concentration-response, CellTiter-Glo luminescence (AID 1117352); assay type: functional
[17] = cytotoxicity toward Colo320 cells – cell-based, CellTiter-Glo luminescence, IC50, dose response (AID 1117334); assay type: functional; details: COLO 320
[18] = biological target: T1, Microphthalmia-associated transcription factor (Homo sapiens, UniProt O75030); assay: reducers of TRPM1 reporter luminescence, concentration series – cell-based, SK-MEL-5, cherry-picked, set 3, MITF inhibitor project, dose response (AID 493073); assay type: functional;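 also: SK-MEL-5 melanoma cells with luciferase driven by the MITF target TRPM1 promoter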
T1 sequence (O75030 whole entry): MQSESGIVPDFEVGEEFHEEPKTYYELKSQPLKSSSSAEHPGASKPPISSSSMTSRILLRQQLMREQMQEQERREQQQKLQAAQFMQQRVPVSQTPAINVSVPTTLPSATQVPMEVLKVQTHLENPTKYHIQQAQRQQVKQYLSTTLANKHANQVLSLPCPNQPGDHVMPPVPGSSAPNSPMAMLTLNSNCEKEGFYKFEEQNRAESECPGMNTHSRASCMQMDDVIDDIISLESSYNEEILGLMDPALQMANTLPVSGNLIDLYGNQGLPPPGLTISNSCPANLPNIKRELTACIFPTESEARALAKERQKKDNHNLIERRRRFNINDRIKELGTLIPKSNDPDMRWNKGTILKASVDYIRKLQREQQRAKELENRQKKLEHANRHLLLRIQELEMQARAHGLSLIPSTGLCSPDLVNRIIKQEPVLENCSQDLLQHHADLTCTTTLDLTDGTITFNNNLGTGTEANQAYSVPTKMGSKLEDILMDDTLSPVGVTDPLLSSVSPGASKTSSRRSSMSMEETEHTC

[19] = blockade of melanocortin 4 receptor signaling – cell-based, plate reader, cherry pick, counter-screen for LGR2 antagonist project, dose response (AID 743444); assay type: functional;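 also: transfected HEK 293 cells stimulated with alpha-MSH peptide; potency of inhibitors of the alpha-MSH evoked signal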
[20] = biological target: Luciferin 4-monooxygenase (Photinus pyralis, UniProt P08659); assay: inhibition of purified Photinus pyralis luciferase – biochemical, luminescence, dose response (AID 1891)
Sequence of Luciferin 4-monooxygenase (P08659 whole entry): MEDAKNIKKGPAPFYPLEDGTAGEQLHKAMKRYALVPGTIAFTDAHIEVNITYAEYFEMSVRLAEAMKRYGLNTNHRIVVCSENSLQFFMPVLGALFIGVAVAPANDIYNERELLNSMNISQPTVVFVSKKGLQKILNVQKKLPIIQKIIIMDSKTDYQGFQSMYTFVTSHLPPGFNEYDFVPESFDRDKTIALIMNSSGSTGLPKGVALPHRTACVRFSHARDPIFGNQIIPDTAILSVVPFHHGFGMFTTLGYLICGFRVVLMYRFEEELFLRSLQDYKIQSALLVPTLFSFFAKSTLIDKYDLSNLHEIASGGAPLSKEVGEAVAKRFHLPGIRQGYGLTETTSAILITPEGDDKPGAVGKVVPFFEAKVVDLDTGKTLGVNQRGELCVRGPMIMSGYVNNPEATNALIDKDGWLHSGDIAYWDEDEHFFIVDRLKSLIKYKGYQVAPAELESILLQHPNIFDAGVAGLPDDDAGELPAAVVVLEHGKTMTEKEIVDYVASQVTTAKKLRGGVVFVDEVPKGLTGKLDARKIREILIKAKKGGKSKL

[21] = Luminescence Cell-Based Dose Confirmation HTS to Identify Inhibitors of Platelet Dense Granule Release. [Related pubchem assays: 1663 (Primary HTS), 1678 (Summary of Project)]; assay type: functional
[22] = blockers of bursicon-stimulated LGR2 cAMP reporter – cell-based, HEK293, CRE-luciferase reporter, cherry pick, set 2, dose response (AID 743343); assay type: functional;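 also: transfected cells were stimulated with diluted bursicon conditioned medium after compound addition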
[23] = viability loss in HEK293 cells – cell-based, plate reader, cherry-picked samples, cytotoxicity control, dose response (AID 743446); assay type: functional
[24] = Potency on glucagon-like peptide 1 release, dose-response in NCI-H716 cell line, half maximal inhibitory concentration (AID 1117344); assay type: functional, cell-based
[25] = glucagon-like peptide-1 release potency in STC-1, concentration-response, half-maximal inhibitory concentration in the STC-1 line (AID 1117345); assay type: functional, cell-based
[26] = cytotoxicity toward HCT116 cells – cell-based, CellTiter-Glo luminescence, IC50, dose response (AID 1117332); assay type: functional; details: HCT-116
[27] = Dd2 parasite growth inhibition in erythrocytes – SYBR Green, dry powder samples, set 9, dose response (AID 1159568); assay type: functional, cell-based

## C[C@@H]1CN([C@@H](C)CO)C(=O)Cc2cc(NC(=O)Cc3cn(C)c4ccccc34)ccc2O[C@H]1CN(C)Cc1ccc(Oc2ccccc2)cc1
[1]
  AC50: 1.6 µM (active)
[2]
  AC50: 22.2 µM (active)
[3]
  AC50: 1.65 µM (active)
[4]
  AC50: > 39 µM (inactive)
[5]
  AC50: 22.6 µM (active)
[6]
  AC50: 1.05 µM (active)
[7]
  AC50: 7.45 µM (active)
[8]
  AC50: 1.34 µM (active)
[9]
  AC50: 43.1 µM (active)

## Cc1ccccc1Nc1nn2c(=O)c3ccccc3nc2s1
[10]
  IC50: 39.3 µM (not active)

## O=C(NC1CCN(CCc2c[nH]c3ccccc23)CC1)c1ccccc1 [INDORAMIN HYDROCHLORIDE]
[11]
  IC50: > 20 µM (inactive)
[12]
  IC50: > 20 µM (inactive)
[13]
  IC50: > 20 µM (inactive)
[14]
  IC50: > 20 µM (inactive)
[15]
  IC50: > 20 µM (inactive)
[16]
  IC50: > 20 µM (inactive)
[17]
  IC50: > 20 µM (inactive)

## COc1cc(SC)ccc1C(=O)Nc1ncc(C)s1
[18]
  AC50: 3.65 µM (active)
[19]
  AC50: 1.01 µM (active)
[20]
  EC50: 8.16 µM (active)
[21]
  EC50: 11.6 µM (active)
[22]
  AC50: 1 µM (active)
[23]
  AC50: > 52 µM (inactive)

## C#CC1(O)CC[C@H]2[C@@H]3CCC4=CCCC[C@@H]4[C@H]3CC[C@@]21C (some centres undefined)
[24]
  IC50: 27.5 µM (inactive)
[25]
  IC50: > 40 µM (inactive)

## Clc1ccc(C(Cn2ccnc2)OCc2ccc(Sc3ccccc3)cc2)c(Cl)c1 (centres undefined) [FENTICONAZOLE]
[26]
  IC50: 7.71 µM (inactive)
[11]
  IC50: 6.77 µM (inactive)
[13]
  IC50: 6.14 µM (inactive)
[14]
  IC50: > 20 µM (inactive)
[15]
  IC50: 7.44 µM (inactive)
[16]
  IC50: 7.76 µM (inactive)
[17]
  IC50: 7.06 µM (inactive)

## N#CCCC12CCCCC1=Nc1ccccc12 (centres undefined)
[10]
  IC50: > 93.1 µM (not active)

## Cc1ccc(S(=O)(=O)N(C)C[C@H]2Oc3cc(C#CC4CCCC4)ccc3S(=O)(=O)N([C@@H](C)CO)C[C@H]2C)cc1
[27]
  AC50: 3.42 µM (active)
